Laboratory results: patent US20240245633A1, “ROR Gamma Agonists as Enhancers of Protective Immunity” (University of Florida Research Foundation, Incorporated, priority 2015, published 2024)
Marks after values point to notes of the source that are not given here.

Experiments:
[1] = system: differentiated TH17 cells; assay: TH17 cell differentiation, flow cytometry; type: cell-based, murine
Method: (§1) Using flow cytometery surface PD-1 expression was analyzed to determine if the decrease in gene expression of PD-1 correlates to a decrease of the protein on the cell surface, Cell: surface PD-1 expression was measured in murine and human T cell lines as well as in ex vivo differentiated murine TH17 cells. […] Next we examined the impact of compound treatment on differentiated murine TH17 cells. […] To determine if there was an increase in the active T cell population during TH17 cell differentiation, the population of CD62L^−PD1^− double negative cells was measured using flow cytometry. […] To determine if the effects of SR0987 on PD-1 expression would be observed in a human cell line, Jurkat T cells were treated with the compound.
TH17 cell differentiation. For naïve T cell differentiation, CD4^+T cells were enriched by negative selection using a magnetic-activated cell sorter kit (Millipore). Enriched CD4+ T cells activated with 5 μg/mL of plate-abound anti CD3 antibody and 1 μg/mL of anti-CD28 antibody in the presence of 20 μg/mL of anti-IFNγ, 20 μg/mL of anti-IL-4, 1 ng/mL of TGFβ, AND 10 ng/mL of IL-6. Four-five days post differentiation, all cells were stimulated for 5 hr with 5 ng/mL of phorbol-12-myristate-13-acetate (Sigma) and 500 ng/mL of ionomycin (Sigma) contained with brefeldin A solution (eBioscience).

EL4 cells = assay: PD-1 surface expression in EL4 cells by flow cytometry; type: cell-based, murine; details: compound 48 hr
Method: as §1
(§2) Gene expression and Cell sorting. Jurkat T cells were pre-incubated with compounds for 48 hr and activated with phorbol 12-myristate 13-acetate (PMA, 50 ng/mL; Sigma) and ionomycin (1 μg/mL; Sigma) for 5 hr. For qPCR, mRNA was isolated with an RNeasy midi kit using DNase I (Qiagen), and cDNA was synthesized with high capacity cDNA Reverse Transcription kit (Applied Biosystems). IL17A, PD-1, and granzyme B gene expression were normalized to the expression of GAPDH. The sequence of primers used in this study are found in Table 2. For cell sorting, activated Jurkat T cells were stained with APC conjugated anti-human PD-1 antibody (eBioscience). […]

EL4 T lymphocytes = assay: qPCR gene expression in PMA/ionomycin stimulated EL4 cells; type: cell-based, murine; details: PMA/ionomycin 5 hr
Method: Here we used murine EL4 T lymphocytes or human Jurkat T cells as model systems to analyze gene expression upon T cell activation. Following treatment of cells with Phorbol 12-myristate 13-acetate (PMA) and ionomycin, the expression of granzyme B (cytotoxicity marker), PD-1 (immune checkpoint) and the RORγt target gene IL17 were analyzed by qPCR.
Gene expression and Cell sorting. Jurkat T cells were pre-incubated with compounds for 48 hr and activated with phorbol 12-myristate 13-acetate (PMA, 50 ng/mL; Sigma) and ionomycin (1 μg/mL; Sigma) for 5 hr. For qPCR, mRNA was isolated with an RNeasy midi kit using DNase I (Qiagen), and cDNA was synthesized with high capacity cDNA Reverse Transcription kit (Applied Biosystems). IL17A, PD-1, and granzyme B gene expression were normalized to the expression of GAPDH. The sequence of primers used in this study are found in Table 2. For cell sorting, activated Jurkat T cells were stained with APC conjugated anti-human PD-1 antibody (eBioscience). Cell sorting was performed using LSRII (BD Bioscience).

Jurkat T cells = assay: PD-1 surface expression in Jurkat T cells; type: cell-based, human
Method: as §1, §2

Gal4-RORγ = target: T1, Gal4-RORγ (Homo sapiens, UniProt P51449); assay: cell-based; details: HEK-293T, read-out: fold induction of reporter gene expression
T1 sequence (P51449 269-508 limits assumed): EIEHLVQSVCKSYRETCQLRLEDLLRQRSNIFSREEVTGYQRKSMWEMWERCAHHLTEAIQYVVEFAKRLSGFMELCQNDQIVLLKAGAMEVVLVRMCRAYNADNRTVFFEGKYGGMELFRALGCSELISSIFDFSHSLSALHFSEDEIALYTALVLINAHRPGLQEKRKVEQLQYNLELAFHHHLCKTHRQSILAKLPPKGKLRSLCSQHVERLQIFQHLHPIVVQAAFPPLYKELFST

RORγt = target: T2, RORγt (Homo sapiens, UniProt P51449); details: Circular Dichroism; cited from earlier work
T2 sequence (P51449 1-497 isoform P51449-2): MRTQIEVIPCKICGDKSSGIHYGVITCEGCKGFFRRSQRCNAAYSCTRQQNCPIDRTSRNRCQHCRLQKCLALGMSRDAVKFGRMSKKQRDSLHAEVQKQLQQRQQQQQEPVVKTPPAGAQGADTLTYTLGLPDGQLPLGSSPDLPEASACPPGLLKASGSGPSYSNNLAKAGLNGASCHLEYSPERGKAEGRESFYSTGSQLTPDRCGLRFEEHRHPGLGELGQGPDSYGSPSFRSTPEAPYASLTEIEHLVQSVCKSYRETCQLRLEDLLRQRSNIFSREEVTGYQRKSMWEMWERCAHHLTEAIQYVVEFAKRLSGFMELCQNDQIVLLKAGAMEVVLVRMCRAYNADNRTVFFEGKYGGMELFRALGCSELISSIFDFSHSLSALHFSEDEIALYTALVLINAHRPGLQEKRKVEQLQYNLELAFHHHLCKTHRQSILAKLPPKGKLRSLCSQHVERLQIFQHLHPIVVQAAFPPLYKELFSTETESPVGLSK

[2] = target: T3, RORγ LBD / SRC1-3 NR box peptide (Homo sapiens, UniProt P51449); assay: NR box peptide interaction assay (TR-FRET); type: biochemical; details: concentration response
T3 sequence (P51449 269-508 limits assumed): T1 sequence (P51449 269-508 limits assumed)
Method: NR box peptide interaction assay. A TR-FRET-based interaction assay was used. […] The mixtures were incubated for 2 hr at R.T., and fluorescence intensity was measured on an Envision pate reader with excitation at 340 nm and emission at 490 nm and 520 nm. The ratio of intensity at 520 nm/490 nm was used to calculate cofactor recruitment activity.

[3] = system: ROR target genes FGF21 and G6Pase; details: in cells and in vivo; cited from earlier work
[4] = target: T4, RORγt LBD pretreated with ursolic acid (Homo sapiens, UniProt P51449); assay: Differential HDX-MS of RORγt pretreated with ursolic acid ± compound; type: binding
T4 construct: 5 μL of a 10 μM RORγt LBD solution (Apo or in complex with 10-excess compound)
T4 sequence (P51449 269-508 limits assumed): T1 sequence (P51449 269-508 limits assumed)
Description: While the mechanism of action of RORγt agonists on regulation of the immune checkpoint receptor PD-1 is unclear, a correlation between RORγt and PD-1 expression has been observed in PD-1 knockout mice Z Regardless, to gain insights into the structural mechanism for agonist activity we examined the impact of putative agonist ligands on the conformational dynamics of RORγt. To achieve this, we utilized differential hydrogen/deuterium exchange (HDX) mass spectrometry.
HDX-MS. Solution-phase amide HDX was performed with a fully automated system as described previously with minor modifications^30,31. For differential HDX experiments, 5 μL of a 10 μM RORγt LBD solution (Apo or in complex with 10-excess compound) was diluted to 25 μL with D20-containing HDX buffer, and incubated at 4° C. for; 10 s, 30s, 60s, 900s, and 3,600s, Following on-exchange, unwanted forward or back exchange is minimized and the protein is denatured by dilution to 50 μL with 0.1% TFA in 3M urea (held at 4° C., pH 2.5). Samples are then passed across an immobilized pepsin column (prepared in house) at 50 μL min−1 (0.1% TFA, 15° C.) and the resulting peptides are trapped onto a Ce trap cartridge (Thermo Fisher, Hypersil Gold). Peptides were then gradient eluted (4% CH3CN to 40% CH3CN, 0,3% formic acid over 5 minutes, 4° C.) across a 1 mm×50 mm Cia HPLC column (Hypersil Gold, Thermo Fisher) and electrosprayed directly into a high resolution orbitrap mass spectrometer (Exactive, Thermo Fisher). Percent deuterium exchange values for peptide isotopic envelopes at each time point were calculated and processed using HDX Workbench^32 and overlaid onto RORγt crystal structures using pyMOL (DeLano Scientific). HDX data is presented as an average of three individual replicates across […] time points (10s, 60s, 300s, 900s, and 3600s).

[5] = target: ligand binding domain (LBD) of RORγt (Homo sapiens, UniProt P51449); details: read-out: IC50, competitive radioligand binding; cited from earlier work

Compound: O=C(Nc1ccc(C(O)(C(F)(F)F)C(F)(F)F)cc1)c1ccccc1Cl [SR0987, 2-chloro-N-(4-(1,1,1,3,3,3-hexafluoro-hydroxypropan-2-yl)phenyl)benzamide]
- CD62L−PD1−CD4+ cell population ([1]; compared to DMSO treated cells): statistically significant increase
- IL17 production (intracellular staining of IL17A) ([1]; murine TH17 cells): trend towards increased IL17 production
- surface PD-1 expression ([1]; murine TH17 cells): repress surface PD-1 expression
- surface expression of PD-1 (EL4 cells): statistically significant reduction of the surface expression of PD-1
- IL17 mRNA expression (EL4 T lymphocytes): further increase in expression of IL17
- PD-1 mRNA expression (EL4 T lymphocytes): decrease in expression of PD-1
- granzyme B mRNA expression (EL4 T lymphocytes): did not impact the expression of granzyme B
- cell surface PD-1 expression (Jurkat T cells): decreased cell surface PD-1 expression

Compound: O=C(Nc1ccc(C(O)(C(F)(F)F)C(F)(F)F)cc1)c1ccc(C(F)(F)F)cc1 [SR1078]
- fold induction at 30 µM (Gal4-RORγ): ≥ 2
- interaction with RORγt via thermal shift assay (RORγt): direct interaction
- interaction of RORγt with SRC1-3 NR box peptide [2]: concentration dependent increase in interaction
- expression of ROR target genes FGF21 and G6Pase [3]: induced the expression of the ROR target genes FGF21 and G6Pase
- protection to solvent exchange in H12 ([4]; RORγt exposed to ursolic acid, then compound): induced protection to solvent exchange in H12
- Differential HDX kinetics, peptide TEIEHLVQ ([4]; UA pretreated, 268-275, charge 2, H1): −2(3)*
- Differential HDX kinetics, peptide TEIEHLVQSVC ([4]; UA pretreated, 268-278, charge 2, H1): 0(3)*
- Differential HDX kinetics, peptide TEIEHLVQSVCKS ([4]; UA pretreated, 268-280, charge 3, H1): 1(4)*
- Differential HDX kinetics, peptide TEIEHLVQSVCKSYRETCQ ([4]; UA pretreated, 268-286, charge 3, H1): 0(3)*
- Differential HDX kinetics, peptide TEIEHLVQSVCKSYRETCQ ([4]; UA pretreated, 268-286, charge 4, H1): 1(3)*
- Differential HDX kinetics, peptide RLEDL ([4]; UA pretreated, 288-292, charge 1, H2): −2(4)*
- Differential HDX kinetics, peptide RLEDLL ([4]; UA pretreated, 288-293, charge 1, H2): −3(5)*
- Differential HDX kinetics, peptide EVTGYQRKSMWEM ([4]; UA pretreated, 304-316, charge 2, H3/H4): 1(4)*
- Differential HDX kinetics, peptide WERCAHHLTEAIQ ([4]; UA pretreated, 317-329, charge 3, H4): 0(1)*
- Differential HDX kinetics, peptide WERCAHHTEAIQY ([4]; UA pretreated, 317-330, charge 3, H4): 1(1)*
- Differential HDX kinetics, peptide WEGAKRLSGF ([4]; UA pretreated, 331-341, charge 2, H4/H5): 0(2)*
- Differential HDX kinetics, peptide FAKRLSGF ([4]; UA pretreated, 334-341, charge 2, H4/H5): 0(2)*
- Differential HDX kinetics, peptide CQNDQM ([4]; UA pretreated, 345-352, charge 1, H5/H6): 0(1)*
- Differential HDX kinetics, peptide CRAYNADNRTVF ([4]; UA pretreated, 368-377, charge 2, B1): 2(1)*
- Differential HDX kinetics, peptide YNADNRTVF ([4]; UA pretreated, 369-377, charge 2, B1): 1(3)*
- Differential HDX kinetics, peptide FEGKYGGMEL ([4]; UA pretreated, 378-387, charge 2, B2/H7): 2(3)*
- Differential HDX kinetics, peptide FRALGCSEL ([4]; UA pretreated, 388-395, charge 2, H7/H8): −1(2)*
- Differential HDX kinetics, peptide LISSIFDFSHSLSAL ([4]; UA pretreated, 396-410, charge 2, H8): 2(2)*
- Differential HDX kinetics, peptide ISSIFD ([4]; UA pretreated, 397-407, charge 1, H8): 1(2)*
- Differential HDX kinetics, peptide ISSIFDFSHSLSAL ([4]; UA pretreated, 397-410, charge 2, H8): 2(2)*
- Differential HDX kinetics, peptide IFDFSHSLSAL ([4]; UA pretreated, 400-410, charge 2, H8): 3(2)*
- Differential HDX kinetics, peptide DFSHSKSAL ([4]; UA pretreated, 402-410, charge 2, H8): 2(2)*
- Differential HDX kinetics, peptide FSHSLSAL ([4]; UA pretreated, 403-410, charge 2, H8): 2(3)*
- Differential HDX kinetics, peptide AXLPPXGKLRSLCSQ ([4]; UA pretreated, 454-478, charge 3, H11): 0(4)*
- Differential HDX kinetics, peptide HVERLQIFQHLHPIWQ ([4]; UA pretreated, 479-495, charge 2, H11): −6(3)*
- Differential HDX kinetics, peptide AAFPPLYKEL ([4]; UA pretreated, 496-505, charge 2, H12): −7(2)*
- Differential HDX kinetics, peptide AAFPPLYKELF ([4]; UA pretreated, 496-506, charge 2, H12): −5(2)*
- Differential HDX kinetics, peptide HFSEDEIAL ([4]; UA pretreated, charge 2, H9): 0(1)*
- Differential HDX kinetics, peptide QIFQHLHPIWQ ([4]; UA pretreated, charge 2, H11): −10(3)*
- Differential HDX kinetics, peptide TEIEHLVQSVCKSYRETCQL ([4]; UA pretreated, charge 3, H1): 0(4)*
- Differential HDX kinetics, peptide VRMCRAYNADNRTVF ([4]; UA pretreated, charge 3, H6/B1): 1(1)*
- IC50 [5]: ~15 µM
